These compounds were tested on SU-DHL-4 cell line (assay: SU-DHL-4 cell proliferation assay (Cell Titer-Glo viability)). Conditions: Homo sapiens; cell viability IC50 activity level, DLBCL cell line SU-DHL-4, 120 hours post-treatment; read-out: SU-DHL-4 Act.
Assay type: cell-based
In short: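 SU-DHL-4 cells (500/well, RPMI-1640 + 10% FBS) exposed to 20-point compound dilutions (0.5 nM–10 μM, 0.1% DMSO) for 120 h at 37°C, 5% CO2. Viability measured by Cell Titer-Glo luminescence at t0 and at 120 h. IC50 is the concentration giving 50% of DMSO control, from a four-parameter logistic fit.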

Question: For CC(C)C1CCN(Cc2ccc(CNc3cccc4c3C(=O)N(C3CCC(=O)NC3=O)C4=O)c(F)c2)CC1 (stereo not shown) [Cpd 103, 2-(2,6-dioxopiperidin-3-yl)-4-(2-fluoro-4-((4-isopropylpiperidin-1-yl)methyl)benzylamino)isoindoline-1,3-dione], which IC50 is on record?
Answer: < 200 nM

Question: With NC(=O)c1cccc(N2CCN(Cc3ccc(CNc4cccc5c4C(=O)N(C4CCC(=O)NC4=O)C5=O)cc3)CC2)n1 (stereo not shown) [Cpd 181, 6-(4-(4-((2-(2,6-dioxopiperidin-3-yl)-1,3-dioxoisoindolin-4-ylamino)methyl)benzyl)piperazin-1-yl)picolinamide] as the compound, how does the IC50 read?
Answer: < 200 nM

Question: Which IC50 does the source give for CC(C)C1CCN(Cc2ccc(CNc3cccc4c3C(=O)N(C3CCC(=O)NC3=O)C4=O)cc2)CC1 (stereo not shown) [Cpd 5, 2-(2,6-dioxopiperidin-3-yl)-4-(4-((4-isopropylpiperidin-1-yl)methyl)benzylamino)isoindoline-1,3-dione] here?
Answer: < 200 nM

Question: With CCS(=O)(=O)N1CCN(Cc2ccc(CNc3cccc4c3C(=O)N(C3CCC(=O)NC3=O)C4=O)cc2F)CC1 (stereo not shown) [Cpd 161, 2-(2,6-dioxopiperidin-3-yl)-4-(4-((4-(ethylsulfonyl)piperazin-1-yl)methyl)-3-fluorobenzylamino)isoindoline-1,3-dione] as the compound, how does the IC50 read?
Answer: < 200 nM

Question: For O=C1CCC(N2C(=O)c3cccc(NCc4ccc(CN5CCC6(CCOCC6)CC5)cc4F)c3C2=O)C(=O)N1 (stereo not shown) [Cpd 234, 4-(4-(3-oxa-9-azaspiro[5.5]undecan-9-ylmethyl)-2-fluorobenzylamino)-2-(2,6-dioxopiperidin-3-yl)isoindoline-1,3-dione], which IC50 is on record?
Answer: < 200 nM

Question: For O=C1CCC(N2C(=O)c3cccc(NCc4ccc(CN5CC(N6CCCC6=O)C5)cc4F)c3C2=O)C(=O)N1 (stereo not shown) [Cpd 169, 2-(2,6-dioxopiperidin-3-yl)-4-(2-fluoro-4-((3-(2-oxopyrrolidin-1-yl)azetidin-1-yl)methyl)benzylamino)isoindoline-1,3-dione], which IC50 is on record?
Answer: < 200 nM

Question: For NC(=O)c1cc(N2CCN(Cc3ccc(CNc4cccc5c4C(=O)N(C4CCC(=O)NC4=O)C5=O)c(F)c3)CC2)ccn1 (stereo not shown) [Cpd 192, 4-(4-(4-((2-(2,6-dioxopiperidin-3-yl)-1,3-dioxoisoindolin-4-ylamino)methyl)-3-fluorobenzyl)piperazin-1-yl)picolinamide], which IC50 is on record?
Answer: < 200 nM

Question: For NC(=O)c1ccc(N2CCN(Cc3ccc(CNc4cccc5c4C(=O)N([C@@H]4CCC(=O)NC4=O)C5=O)cc3)CC2)cn1 [Cpd 91, (R)-5-(4-(4-((2-(2,6-dioxopiperidin-3-yl)-1,3-dioxoisoindolin-4-ylamino)methyl)benzyl)piperazin-1-yl)picolinamide], which IC50 is on record?
Answer: < 200 nM

Question: Which IC50 does the source give for NC(=O)c1ccc(N2CCN(Cc3ccc(CNc4cccc5c4C(=O)N([C@@H]4CCC(=O)NC4=O)C5=O)c(F)c3)CC2)nc1 [Cpd 206, (R)-6-(4-(4-((2-(2,6-dioxopiperidin-3-yl)-1,3-dioxoisoindolin-4-ylamino)methyl)-3-fluorobenzyl)piperazin-1-yl)nicotinamide] here?
Answer: < 200 nM

Question: How did the IC50 turn out when Cc1cc(CNc2cccc3c2C(=O)N(C2CCC(=O)NC2=O)C3=O)ccc1CN1CC(Oc2ccccc2)C1 (stereo not shown) [Cpd 82, 2-(2,6-dioxopiperidin-3-yl)-4-(3-methyl-4-((3-phenoxyazetidin-1-yl)methyl)benzylamino)isoindoline-1,3-dione] was run?
Answer: 501 to 750 nM

Question: Which IC50 does the source give for O=C1CCC(N2C(=O)c3cccc(NCc4ccc(CN5CCC(O)(C6CC6)CC5)cc4)c3C2=O)C(=O)N1 (stereo not shown) [Cpd 131, 4-(4-((4-cyclopropyl-4-hydroxypiperidin-1-yl)methyl)benzylamino)-2-(2,6-dioxopiperidin-3-yl)isoindoline-1,3-dione] here?
Answer: 200 to 500 nM

Question: Which IC50 does the source give for O=C1CCC(N2C(=O)c3cccc(NCc4ccc(CN5CCC(O)(c6ccccn6)CC5)cc4F)c3C2=O)C(=O)N1 (stereo not shown) [Cpd 167, 2-(2,6-dioxopiperidin-3-yl)-4-(2-fluoro-4-((4-hydroxy-4-(pyridin-2-yl)piperidin-1-yl)methyl)benzylamino)isoindoline-1,3-dione] here?
Answer: < 200 nM

Question: With CCC1(OC)CCN(Cc2ccc(CNc3cccc4c3C(=O)N(C3CCC(=O)NC3=O)C4=O)cc2)CC1 (stereo not shown) [Cpd 128, 2-(2,6-dioxopiperidin-3-yl)-4-(4-((4-ethyl-4-methoxypiperidin-1-yl)methyl)benzylamino)isoindoline-1,3-dione] as the compound, how does the IC50 read?
Answer: 200 to 500 nM

Question: Which IC50 does the source give for O=C1CCC(N2C(=O)c3cccc(NCc4ccc(CN5CC(c6ccccn6)C5)cc4)c3C2=O)C(=O)N1 (stereo not shown) [Cpd 16, 2-(2,6-dioxopiperidin-3-yl)-4-(4-((3-(pyridin-2-yl)azetidin-1-yl)methyl)benzylamino)isoindoline-1,3-dione] here?
Answer: < 200 nM

Question: Which IC50 does the source give for C[C@@H]1CN(c2ccc(C#N)cn2)CCN1Cc1ccc(CNc2cccc3c2C(=O)N(C2CCC(=O)NC2=O)C3=O)cc1 (stereo partly drawn) [Cpd 53, 6-((3R)-4-(4-((2-(2,6-dioxopiperidin-3-yl)-1,3-dioxoisoindolin-4-ylamino)methyl)benzyl)-3-methylpiperazin-1-yl)nicotinonitrile] here?
Answer: < 200 nM

Question: How did the IC50 turn out when NC(=O)c1cccc(N2CCN(Cc3ccc(CNc4cccc5c4C(=O)N(C4CCC(=O)NC4=O)C5=O)cc3F)CC2)n1 (stereo not shown) [Cpd 183, 6-(4-(4-((2-(2,6-dioxopiperidin-3-yl)-1,3-dioxoisoindolin-4-ylamino)methyl)-2-fluorobenzyl)piperazin-1-yl)picolinamide] was run?
Answer: < 200 nM

Question: With O=C1CCC(N2C(=O)c3cccc(NCc4ccc(CN5CCN(C(=O)c6ccccc6F)CC5)cc4F)c3C2=O)C(=O)N1 (stereo not shown) [Cpd 188, 2-(2,6-dioxopiperidin-3-yl)-4-(2-fluoro-4-((4-(2-fluorobenzoyl)piperazin-1-yl)methyl)benzylamino)isoindoline-1,3-dione] as the compound, how does the IC50 read?
Answer: 751 to 1000 nM

Question: O=C1CCC(N2C(=O)c3cccc(NCc4ccc(CN5CCN(c6noc7ccccc67)CC5)cc4F)c3C2=O)C(=O)N1 (stereo not shown) [Cpd 176, 4-(4-((4-(benzo[d]isoxazol-3-yl)piperazin-1-yl)methyl)-2-fluorobenzylamino)-2-(2,6-dioxopiperidin-3-yl)isoindoline-1,3-dione] was tested. Which IC50 did it give?
Answer: < 200 nM

Question: How did the IC50 turn out when O=C1CCC(N2C(=O)c3cccc(NCc4ccc(CN5CC6(CCOC6)C5)cc4F)c3C2=O)C(=O)N1 (stereo not shown) [Cpd 241, 4-(4-(6-oxa-2-azaspiro[3.4]octan-2-ylmethyl)-2-fluorobenzylamino)-2-(2,6-dioxopiperidin-3-yl)isoindoline-1,3-dione] was run?
Answer: < 200 nM

Question: How did the IC50 turn out when CC(N1CCN(Cc2ccc(CNc3cccc4c3C(=O)N(C3CCC(=O)NC3=O)C4=O)cc2)CC1)C(F)(F)F (stereo not shown) [Cpd 71, 2-(2,6-dioxopiperidin-3-yl)-4-(4-((4-(1,1,1,-trifluoropropan-2-yl)piperazin-1-yl)methyl)benzylamino)isoindoline-1,3-dione] was run?
Answer: < 200 nM

Question: For N#Cc1ccc(OC2CN(Cc3ccc(CNc4cccc5c4C(=O)N(C4CCC(=O)NC4=O)C5=O)cc3)C2)cc1 (stereo not shown) [Cpd 74, 4-(1-(4-((2-(2,6-dioxopiperidin-3-yl)-1,3-dioxoisoindolin-4-ylamino)methyl)benzyl)azetidin-3-yloxy)benzonitrile], which IC50 is on record?
Answer: 501 to 750 nM

Question: With O=C1CCC(N2C(=O)c3cccc(NCc4ccc(CN5CCN(c6ccc(F)cc6F)CC5)c(F)c4)c3C2=O)C(=O)N1 (stereo not shown) [Cpd 109, 4-(4-((4-(2,4-difluorophenyl)piperazin-1-yl)methyl)-3-fluorobenzylamino)-2-(2,6-dioxopiperidin-3-yl)isoindoline-1,3-dione] as the compound, how does the IC50 read?
Answer: < 200 nM

Question: How did the IC50 turn out when O=C1CCC(N2C(=O)c3cccc(NCc4ccc(CN5CC(C(F)(F)F)C5)cc4)c3C2=O)C(=O)N1 (stereo not shown) [Cpd 117, 2-(2,6-dioxopiperidin-3-yl)-4-(4-((3-(trifluoromethyl)azetidin-1-yl)methyl)benzylamino)isoindoline-1,3-dione] was run?
Answer: 200 to 500 nM

Question: How did the IC50 turn out when O=C1CCC(N2C(=O)c3cccc(NCc4ccc(CN5CCC(F)(c6ccccn6)CC5)cc4F)c3C2=O)C(=O)N1 (stereo not shown) [Cpd 168, 2-(2,6-dioxopiperidin-3-yl)-4-(2-fluoro-4-((4-fluoro-4-(pyridin-2-yl)piperidin-1-yl)methyl)benzylamino)isoindoline-1,3-dione] was run?
Answer: < 200 nM

Question: With NC(=O)c1ccc(N2CCN(Cc3ccc(CNc4cccc5c4C(=O)N(C4CCC(=O)NC4=O)C5=O)cc3)CC2)cc1 (stereo not shown) [Cpd 57, 4-(4-(4-((2-(2,6-dioxopiperidin-3-yl)-1,3-dioxoisoindolin-4-ylamino)methyl)benzyl)piperazin-1-yl)benzamide] as the compound, how does the IC50 read?
Answer: < 200 nM

Question: With O=C1CCC(N2C(=O)c3cccc(NCc4ccc(CN5CCN(c6ccc(C(F)(F)F)cn6)CC5)cc4)c3C2=O)C(=O)N1 (stereo not shown) [Cpd 119, 2-(2,6-dioxopiperidin-3-yl)-4-(4-((4-(5-(trifluoromethyl)pyridin-2-yl)piperazin-1-yl)methyl)benzylamino)isoindoline-1,3-dione] as the compound, how does the IC50 read?
Answer: 200 to 500 nM

Question: Which IC50 does the source give for O=C1CCC(N2C(=O)c3cccc(NCc4ccc(CN5CCC(OCC6CC6)CC5)cc4)c3C2=O)C(=O)N1 (stereo not shown) [Cpd 127, 4-(4-((4-(cyclopropylmethoxy)piperidin-1-yl)methyl)benzylamino)-2-(2,6-dioxopiperidin-3-yl)isoindoline-1,3-dione] here?
Answer: 751 to 1000 nM

Question: O=C1CCC(N2C(=O)c3cccc(NCc4ccc(CN5CCC(OC6CCC6)CC5)cc4)c3C2=O)C(=O)N1 (stereo not shown) [Cpd 126] was tested. Which IC50 did it give?
Answer: 200 to 500 nM

Question: With Cc1cc(CNc2cccc3c2C(=O)N(C2CCC(=O)NC2=O)C3=O)ccc1CN1CCN(c2cccc(C(N)=O)n2)CC1 (stereo not shown) [Cpd 182, 6-(4-(4-((2-(2,6-dioxopiperidin-3-yl)-1,3-dioxoisoindolin-4-ylamino)methyl)-2-methylbenzyl)piperazin-1-yl)picolinamide] as the compound, how does the IC50 read?
Answer: < 200 nM

Question: For CN1CCC2(CCN(Cc3ccc(CNc4cccc5c4C(=O)N(C4CCC(=O)NC4=O)C5=O)c(F)c3)CC2)C1=O (stereo not shown) [Cpd 151, 2-(2,6-dioxopiperidin-3-yl)-4-(2-fluoro-4-((2-methyl-1-oxo-2,8-diazaspiro[4.5]decan-8-yl)methyl)benzylamino)isoindoline-1,3-dione], which IC50 is on record?
Answer: < 200 nM

Question: NC(=O)c1ccc(N2CCN(Cc3ccc(CNc4cccc5c4C(=O)N(C4CCC(=O)NC4=O)C5=O)c(F)c3)CC2)cn1 (stereo not shown) [Cpd 110, 5-(4-(4-((2-(2,6-dioxopiperidin-3-yl)-1,3-dioxoisoindolin-4-ylamino)methyl)-3-fluorobenzyl)piperazin-1-yl)picolinamide] was tested. Which IC50 did it give?
Answer: < 200 nM

— patent US11358952B2, “Substituted 4-aminoisoindoline-1,3-dione compounds, compositions thereof, and methods of treatment therewith” (Celgene Corporation, priority 2018, dated 2022)
